Data published in patent publication US8513260B2, “Pyrazinylpyrazoles” (Bayer CropScience AG, priority 2009, dated 2013).
Read-outs that look alike come from different tables or passages of the source.

Columns and labels:
Boophilus microplus = Boophilus microplus test (BOOPMI injection); type: in vivo; settings: 20 μg animal; injection into the abdomen; after 7 days, laying of fertile eggs
Protocol: Boophilus microplus Test (BOOPMI Injection) Solvent: dimethyl sulphoxide To prepare an appropriate active ingredient formulation, 10 mg of active ingredient are mixed with 0.5 ml of solvent and the concentrate is diluted with solvent to the desired concentration. The active ingredient solution is injected into the abdomen (Boophilus microplus), and the animals are transferred into dishes and stored in a climate-controlled room. The efficacy is assessed by laying of fertile eggs. After 7 days, the efficacy in % is determined. 100% means that none of the ticks has laid any fertile eggs.

[1] = tested on: larvae of the mustard beetle (Phaedon cochleariae); experiment: Phaedon test (PHAECO spray treatment); type: in vivo; settings: Chinese cabbage discs, after 7 days; for efficacy: 500 g/ha; for pest or weed control at 500 g/ha: Phaedon cochleariae, 168 h, read-out: efficacy
Protocol: Phaedon Test ([…] Spray Treatment) Solvent: 78.0 parts by weight of acetone • • 1.5 parts by weight of dimethylformamide Emulsifier: 0.5 part by weight of alkylaryl polyglycol ether To prepare an appropriate active ingredient preparation, 1 part by weight of active ingredient is mixed with the stated amounts of solvent and emulsifier, and the concentrate is diluted with emulsifier-containing water to the desired concentration. Discs of Chinese cabbage (Brassica pekinensis) are sprayed with an active ingredient preparation of the desired concentration and, after drying, populated with larvae of the mustard beetle (Phaedon cochleariae). After 7 days, the efficacy in % is determined. 100% means that all beetle larvae have been killed; 0% means that none of the beetle larvae have been killed.

[2] = tested on: red spider mite (Tetranychus urticae); experiment: Tetranychus test, OP-resistant (TETRUR spray treatment); type: in vivo; settings: bean leaf discs, after 6 days
Protocol: Tetranychus Test, OP-Resistant (TETRUR Spray Treatment)
Solvent: 78.0 parts by weight of acetone • • 1.5 parts by weight of dimethylformamide
Emulsifier: 0.5 part by weight of alkylaryl polyglycol ether
To prepare an appropriate active ingredient preparation, 1 part by weight of active ingredient is mixed with the stated amounts of solvent and emulsifier, and the concentrate is diluted with emulsifier-containing water to the desired concentration. Discs of bean leaves (Phaseolus vulgaris) infested by all stages of the red spider mite (Tetranychus urticae) are sprayed with an active ingredient preparation of the desired concentration. After 6 days, the efficacy in % is determined. 100% means that all spider mites have been killed; 0% means that none of the spider mites have been killed.

[3] = logP by HPLC on reversed-phase columns (C 18), EEC Directive 79/831 Annex V.A8; type: physicochemical; settings: for chromatographic logP: reversed-phase C18 HPLC column, read-out: log P
Source text: [table] The calibration is effected with unbranched alkan-2-ones (having 3 to 16 carbon atoms) with known logP values (logP values determined on the basis of the retention times by linear interpolation between two successive alkanones).

[4] = tested on: caterpillars of the armyworm (Spodoptera frugiperda); experiment: Spodoptera frugiperda test (SPODFR spray treatment); type: in vivo; settings: maize leaf discs, after 7 days; for efficacy: 500 g/ha; for pest or weed control at 500 g/ha: Spodoptera frugiperda, foliar, 168 h, read-out: efficacy
Protocol: Spodoptera frugiperda Test (SPODFR Spray Treatment) Solvent: 78.0 parts by weight of acetone • • 1.5 parts by weight of dimethylformamide Emulsifier: 0.5 part by weight of alkylaryl polyglycol ether To prepare an appropriate active ingredient preparation, 1 part by weight of active ingredient is mixed with the stated amounts of solvent and emulsifier, and the concentrate is diluted with emulsifier-containing water to the desired concentration. Discs of maize leaves (Zea mays) are sprayed with an active ingredient preparation of the desired concentration and, after drying, populated with caterpillars of the armyworm (Spodoptera frugiperda). After 7 days, the efficacy in % is determined. 100% means that all caterpillars have been killed; 0% means that none of the caterpillars have been killed.

[5] = * LC-MS, acidic range pH 2.7, 0.1% aqueous formic acid and acetonitrile
[6] = pH 2.7, * LC-MS, acidic range pH 2.7, 0.1% aqueous formic acid and acetonitrile

Row | chromatographic logP [3, 6] | Structure (SMILES) | efficacy [1] | efficacy ([2]; 500 g/ha) | efficacy [4] | other results
1 |  | CCC(OC)c1nn(-c2nccnc2OC)c(N)c1-c1ccc(Cl)c(Cl)c1 (centres unmarked) [Ex. 3] | 100% | 100% |  | efficacy (Boophilus microplus): 100%
2 |  | CCCOc1nccnc1-n1nc(C(F)(F)F)c(-c2ccc(Br)cc2)c1N [Ex. 4] |  |  |  | chromatographic logP ([3]; pH 2.3, ** acidic range pH 2.3, 0.1% aqueous phosphoric acid and acetonitrile): 4.11; pest or weed control at 500 g/ha [1]: 83%; pest or weed control at 500 g/ha ([2]; Tetranychus urticae, foliar, 144 h, 500 g/ha, read-out: efficacy): 90%
3 |  | CC(C)Oc1nccnc1-n1nc(C(F)(F)F)c(-c2cc(Cl)cc(C(F)(F)F)c2)c1N [Ex. 13] | 83% |  |  | 
4 |  | Cc1nccnc1-n1nc(C(F)(F)F)c(-c2cc(Cl)cc(C(F)(F)F)c2)c1N [Ex. 23] | 100% | 100% |  | 
5 |  | N#Cc1nccnc1-n1nc(C(F)(F)F)c(-c2cc(Cl)cc(C(F)(F)F)c2)c1N [Ex. 27] | 100% |  |  | 
6 |  | CCOc1nccnc1-n1nc(C(F)(F)F)c(-c2cc(Cl)cc(C(F)(F)F)c2)c1N(Cc1ccccc1)Cc1ccccc1 [Ex. 34] |  |  |  | log P [3, 5]: 7*
7 |  | CCOc1nccnc1-n1nc(C(F)(F)F)c(-c2cc(Cl)cc(C(F)(F)F)c2)c1NCc1ccccc1 [Ex. 35] |  | 90% |  | 
8 |  | CCOc1nccnc1-n1nc(C(F)(F)F)c(-c2cc(Cl)cc(C(F)(F)F)c2)c1N(Cc1ccc(OC)cc1)Cc1ccc(OC)cc1 [Ex. 43] | 100% |  | 100% | 
9 |  | Nc1c(-c2cc(Cl)cc(C(F)(F)F)c2)c(C(F)(F)F)nn1-c1nccnc1-n1ccnc1 [Ex. 44] | 100% |  | 100% | 
10 | 2.59 | COc1nccnc1-n1nc(C(F)(F)F)c(-c2ccccn2)c1N [Ex. 49] |  |  |  | 
11 | 2.62 | COc1nccnc1-n1nc(C(F)(F)F)c(-c2cncc(Br)c2)c1N [Ex. 50] |  |  |  | 
12 | 2.94 | COc1nccnc1-n1nc(C(F)(F)F)c(-c2ncc(Cl)cc2Cl)c1N [Ex. 52] |  |  |  | pest or weed control at 500 g/ha [1]: 100%
13 | 3.55 | COc1nccnc1-n1nc(C(F)(F)F)c(-c2ccc(Cl)cn2)c1N [Ex. 53] |  |  |  | 
14 | 4.17 | COc1nccnc1-n1nc(C(F)(F)C(F)(F)F)c(-c2ccc(Cl)cn2)c1N [Ex. 54] |  |  |  | 
15 | 2.19 | COc1nccnc1-n1nc(C(F)(F)F)c(-c2cccnc2Cl)c1N [Ex. 57] |  |  |  | 
16 | 3.14 | COc1nccnc1-n1nc(C(F)(F)C(F)(F)F)c(-c2ccc(Cl)nc2)c1N [Ex. 58] |  |  |  | 
17 |  | COc1nccnc1-n1nc(C(F)(F)C(F)F)c(-c2cc(Cl)c3c(c2)OCO3)c1N [Ex. 65] | 100% | 90% | 100% | 
18 |  | COc1nccnc1-n1nc(C(F)(F)C(F)F)c(-c2cc(Cl)c3c(c2)CCO3)c1N [Ex. 66] | 100% | 90% | 100% | 
19 | 2.79 | COc1nccnc1-n1nc(C2CC2)c(-c2cc(Cl)c3c(c2)OCO3)c1N [Ex. 79] |  |  |  | pest or weed control at 500 g/ha [4]: 100%; pest or weed control at 500 g/ha [1]: 100%
20 |  | COc1nccnc1-n1nc(C(F)(F)F)c(-c2cc(Cl)c(Cl)c(C(F)(F)F)c2)c1N [Ex. 86] | 100% |  | 100% | 
21 | 4.35 | COc1nccnc1-n1nc(C(F)(F)F)c(-c2cc(Cl)c(Cl)c(Cl)c2)c1N [Ex. 87] |  |  |  | pest or weed control at 500 g/ha [4]: 100%; pest or weed control at 500 g/ha [1]: 100%
22 |  | C=C(C)CNc1c(-c2cc(Cl)cc(C(F)(F)F)c2)c(C(F)(F)F)nn1-c1nccnc1OC [Ex. 96] |  | 100% |  | 
23 |  | COc1nccnc1-n1nc(C(F)(F)C(F)F)c(-c2cc(Cl)c(Cl)c(Cl)c2)c1N [Ex. 116] | 100% | 90% | 100% | 
24 |  | COc1nccnc1-n1nc(C(F)(F)F)c(-c2cc(Cl)c(N(C)C)c(Cl)c2)c1N [Ex. 121] | 100% |  | 100% | efficacy ([2]; 100 g/ha): 80%

Row | chromatographic logP [3, 6] | Structure (SMILES) | efficacy [1] | efficacy ([2]; 500 g/ha) | efficacy [4] | other results
25 |  | COc1nccnc1-n1nc(C(F)(F)F)c(-c2ccc(N(C)C)c(Cl)c2)c1N [Ex. 122] | 100% |  | 100% | 
26 |  | COc1nccnc1-n1nc(C(F)(F)F)c(-c2cc(Cl)c(N(C)C)c(C(F)(F)F)c2)c1N [Ex. 123] | 100% | 80% | 100% | 
27 |  | COc1nccnc1-n1nc(C(F)(F)F)c(-c2cc(F)c(OC)c(Cl)c2)c1N [Ex. 124] | 100% | 90% | 100% | log P ([3]; *** LC-MS, neutral range pH 7.8, 0.001 molar aqueous ammonium hydrogencarbonate and acetonitrile): 3.5***;
28 |  | COc1cc(-c2c(C(F)(F)F)nn(-c3nccnc3OC)c2N)ccc1OCC(F)(F)F [Ex. 125] | 100% | 90% |  | 
29 |  | CCOc1cc(-c2c(C(F)(F)F)nn(-c3nccnc3OC)c2N)ccc1OCC(F)(F)F [Ex. 127] | 100% | 90% |  | 
30 | 2.87 | COc1ccc(-c2c(C(F)(F)F)nn(-c3nccnc3OC)c2N)c(Br)c1OC [Ex. 128] |  |  |  | 
31 |  | Nc1c(-c2cc(Cl)cc(C(F)(F)F)c2)c(C(F)(F)F)nn1-c1nccnc1C(F)(F)F [Ex. 130] | 100% |  | 100% | 
32 |  | COc1cc(-c2c(C(F)(F)F)nn(-c3nccnc3OC)c2N)cc(Cl)c1OCC(F)(F)F [Ex. 134] | 100% |  | 100% | 
33 | 3 | COc1nccnc1-n1nc(C(F)(F)F)c(-c2ccccc2Br)c1N [Ex. 137] |  |  |  | 
34 | 3.09 | COc1nccnc1-n1nc(C(F)(F)F)c(-c2ccccc2I)c1N [Ex. 138] |  |  |  | 
35 |  | CCOc1cc(-c2c(C(F)(F)F)nn(-c3nccnc3OC)c2N)cc(Br)c1OCC(F)(F)F [Ex. 140] | 100% |  | 100% | log P [3, 5]: 4.3*
36 | 3.31 | COc1nccnc1-n1nc(C(F)(F)F)c(-c2c(F)ccc(Cl)c2Cl)c1N [Ex. 142] |  |  |  | pest or weed control at 500 g/ha [1]: 100%
37 | 2.86 | COc1nccnc1-n1nc(C(F)(F)F)c(-c2cc3c(cc2Cl)OCO3)c1N [Ex. 143] |  |  |  | 
38 |  | CCOc1cc(-c2c(C(F)(F)F)nn(-c3nccnc3OC)c2N)cc(Cl)c1OCC(F)(F)F [Ex. 144] | 100% | 100% | 100% | 
39 |  | COc1nccnc1-n1nc(C(F)(F)F)c(-c2ccc3c(c2)CCC(C)(C)O3)c1N [Ex. 145] | 100% |  |  | 
40 | 3.47 | COc1cc(-c2c(C(F)(F)F)nn(-c3nccnc3OC)c2N)cc(I)c1OC [Ex. 147] |  |  |  | 
41 |  | COc1cc(-c2c(C(F)(F)C(F)F)nn(-c3nccnc3OC)c2N)cc(C(F)(F)F)c1OC [Ex. 157] | 100% | 100% | 100% | 
42 | 2.66 | CCc1nn(-c2nccnc2OC)c(N)c1-c1cc(Cl)c(OC)c(OC)c1 [Ex. 161] |  |  |  | pest or weed control at 500 g/ha [4]: 100%; pest or weed control at 500 g/ha [1]: 100%
43 |  | COc1nccnc1-n1nc(C(F)(F)F)c(-c2cc(F)c(Cl)cc2Cl)c1N [Ex. 166] | 100% | 90% |  | 
44 |  | COc1nccnc1-n1nc(C(F)(F)F)c(-c2cc3c(c(C(F)(F)F)c2)OCCO3)c1N [Ex. 173] | 100% | 90% | 100% | 
45 |  | COc1cc(-c2c(C(F)(F)F)nn(-c3nccnc3OC)c2N)cc(I)c1OC [Ex. 176] |  |  |  | log P [3, 5]: 3.87*
46 | 3.03 | CCOc1nccnc1-n1nc(CC)c(-c2cc(Br)c3c(c2)OCO3)c1N [Ex. 177] |  |  |  | 
47 | 2.65 | CCc1nn(-c2nccnc2OC)c(N)c1-c1cc(Br)c2c(c1)OCO2 [Ex. 178] |  |  |  | 
48 |  | COc1nccnc1-n1nc(C(F)(F)F)c(-c2cc(Cl)cc(C(F)(F)F)c2)c1N(C)C [compound 107, 1-(3-methoxypyrazin-2-yl)-4-[3-chloro-5-(trifluoromethyl)phenyl]-3-(trifluoromethyl)-1H-pyrazole-5-dimethylamine] | 83% |  |  | log P [3, 5]: 5.11*
